This note sets out measurements from a melting point compilation (Tetko et al.; mined from patent text by program, amines drawn as free bases though some values may be those of a salt).

With `CCNC=C(C(=O)C=Cc1ccccc1)C(=O)OC`, the melting point (usually the temperature of the solid-liquid transition) lay in the range of 92 to 94 °C. `CSC1=C(Sc2ccc(C)cc2)CC2C3CCC4=CC(=O)C=CC4(C)C3(F)C(O)CC12C` (stereo unspecified) had a melting point of 205 to 206 °C. The figure for `O=C(O)C(CSc1nc2ccccc2[nH]1)CS(=O)(=O)c1ccc(-c2ccc(Cl)cc2)cc1` (stereo unspecified) is 176 to 179 °C; for `Fc1ccc(Cn2c(NC3CCN(CCc4ccccn4)CC3)nc3cncnc32)cc1` it is 172 °C; for `CN(O)C(=O)C1=Cc2cc(OCc3ccccc3)ccc2OC1` it is 143 to 146 °C. With `CC(C)Sc1c(C(N)=O)n(C)c2ccc(O)cc12`, the melting point was 60 to 62 °C. The value for `Cc1ccc(S(=O)(=O)OCCC2CCN(C(=O)c3ccccc3)CC2)cc1` was 81 to 83 °C.

Regarding `COc1ccc2c(c1)OC(CCO)C(=O)N2Cc1cccc([N+](=O)[O-])c1` (stereo unspecified), the melting point was 116 to 118 °C. `O=C(c1ccccc1F)c1cc(Br)ccc1NC(=O)C(F)(F)F` gave a melting point of 132 °C. Turning to `O=C(CCl)Nc1ccc(Cl)cc1C(=O)O`, the melting point was 188 °C. The figure for `CC(C)NC1=NS(=O)(=O)c2c(cnn2C)N1` is 242 to 243 °C. The value for `CC(C)c1cccc(C(C)C)c1N=C(c1ccccc1)N(CC(=O)c1ccccc1)c1c(C(C)C)cccc1C(C)C` was 142 to 143 °C; that for `CC(=O)NC(CO)C(=O)c1ccccc1` (stereo unspecified) was 115 to 117 °C. The value for `O=C(CCCN1CCC(c2noc3cc(F)ccc23)CC1)c1cc2c(s1)CCCNC2=O` was 142 to 143 °C; that for `O=C1Nc2ccccc2C1CCCCN1CCN(c2ccc(Cl)c(Cl)c2)CC1` (stereo unspecified) was 112 to 114 °C. For the compound `COc1ccc2c(c1)c(CC(=O)O[C@H]1CO[C@H]3[C@H]1OC[C@H]3O[N+](=O)[O-])c(C)n2C(=O)c1ccc(Cl)cc1`, the melting point fell in the range of 159 to 160 °C. The value for `O=C(Nc1cccc(-c2ccnc3c(C(=O)c4cccs4)cnn23)c1)OCCCN1CCOCC1` was 198 to 199 °C; that for `CCCCC(=O)N(Cc1ccc(-c2ccccc2S(=O)(=O)N=CN(C)C)cc1)C(C#N)C(=O)OCC` (stereo unspecified) was 130 to 132 °C; that for `COc1ccc(-n2ccn([C@H](C)[C@@]3(c4ccc(F)cc4F)CO3)c2=O)cc1` was 150 to 151 °C. Compound `Cc1cc(C(F)(F)C(F)(F)F)ccc1NC(=O)c1ccc(Cl)c(Cl)c1C(=O)NC(C)C` had a melting point of 208 to 209 °C. The figure for `COc1cc(C(=O)Nc2c(C)cc3cn(CC(F)(F)F)nc3c2C(=O)NC(C)C)n(-c2ncccc2Cl)n1` is 178 to 181 °C; for `Cc1cccc(-c2[nH]c(C3CC3)nc2-c2cccc(-c3ccc(C(=O)NC4CCOCC4)cc3)c2)n1` it is 127 to 128 °C; for `CCN1C(=O)C(C)(C)c2ccc(C(=O)Nc3ccccc3)cc21` it is 227 to 230 °C. The value for `CC(=O)N1N=C(c2ccc(N)cc2)c2cc(Br)ccc2CC1C` (stereo unspecified) was 205 to 208 °C. The value for `O=C(c1cccs1)c1cnn2c(-c3cccc(NCc4ccccc4)c3)ccnc12` was 90 to 92 °C; that for `Cc1cc(C)nc(N(C(=O)C(Cl)(Cl)Cl)c2ccccc2)n1` was 126 to 127 °C; that for `O=C1c2ccc(-c3cccc(C(F)(F)F)c3)cc2CC1Br` (stereo unspecified) was 96 °C. `CN(c1ccccc1)c1ccc(-c2nc(C#N)c(C#N)nc2C#N)cc1` yielded a melting point of 187 °C.

`Nc1ncc(CCc2ccccc2)cc1[N+](=O)[O-]` gave a melting point of 145 to 146 °C. The compound `CCCCCCCCCCCCC(=O)c1c[nH]c(C2(OC)OCCSSO2)c1` (stereo unspecified) had a melting point of 77 to 78 °C.

For `CCN1c2ncc(CSc3ccncc3)cc2C(=O)N(C)c2ccc(Cl)nc21`, the melting point was 140 to 142 °C. The figure for `CS(=O)(=O)CCCOc1cccc2c1ccn2-c1ccnc(NC2CCC(C(=O)N3CCC(CN)CC3)CC2)n1` (stereo unspecified) is 124 to 126 °C; for `C[Si](C)(C)c1cccc2c1Sc1c(cccc1[Si](C)(C)C)S2` it is 90 to 91 °C. The figure for `CCOc1ccc2[nH]c(=O)n(C(C)(C)CC(C)(C)C)c2c1` is 108 °C; for `CC#CCOc1ccc(SC(C(=O)NO)c2ccc(F)cc2)cc1` (stereo unspecified) it is 91.1 °C. For the compound `NC(=O)N(O)Cc1ccc(OCc2ccccc2)cc1`, the melting point fell in the range of 147 to 149 °C.

Regarding `C=C(c1ccc(-c2cc[nH]n2)cc1)C(O)(Cn1cncn1)c1ccc(F)cc1F` (stereo unspecified), the melting point lay within 182 to 184 °C.

In turn, `CC(C)(C)NCC(O)COc1ccc(N)cc1` (stereo unspecified) gave a melting point of 125 to 127 °C. For `CCOC(=O)NCCc1cccc(C(=O)C=CN(C)C)c1`, the melting point lay within 45 to 50 °C. The value for `COc1ccc(NS(=O)(=O)C(F)(F)F)cc1CC1C(=O)c2cc(OCc3nc4cc(F)c(F)cc4s3)ccc2OC1(C)C` (stereo unspecified) was 198 to 200 °C; that for `CCOC(=O)c1cncnc1Nc1ccccc1NC` was 153 to 155 °C. The value for `CCN(Cc1cccnc1)C(=S)NC` was 122 to 123 °C; that for `CCOC(=O)C=Cc1ccc(OCc2ccccn2)cc1` was 95 °C; that for `C/C(NCC(C)C)=C(\C#N)C(N)=S` was 165 to 167 °C.

The compound `Cc1cc(-c2ccc(C(F)(F)F)cc2)cc(-c2nc(-c3cccc(S(N)(=O)=O)c3)cs2)n1` registered a melting point greater than 250 °C. The figure for `CN(C)C=C(C#N)S(=O)(=O)c1ccccc1` is 108 to 110 °C.

As to `COc1cccc2cc(CNCCNC(=O)C34CCC(CC3=O)C4(C)C)oc12` (stereo unspecified), the melting point fell in the range of 177 to 178 °C. The value for `CCNC(=O)c1ccc(-n2nnc(C(=O)NC3CC3)c2CNCc2ccccc2)cc1` was 153 °C; that for `O=C(NCc1ccc(Cl)cc1)c1cnc2ccc(CO)cc2c1O` was 288 to 289 °C; that for `Fc1cccc(C(c2ccc3nccnc3c2)n2ccnc2)c1` (stereo unspecified) was 110 °C.

For `CC(C)(CC(=O)O)C(=O)C(=O)O`, the melting point was 134 to 135 °C. On to `CSc1nc(-c2ccc(C#N)cc2)cn1-c1ccc(C#N)cc1`, for which the melting point fell in the range of 209 to 219 °C. `O=c1c2c[nH]c3c(c-2nn1-c1ccc(Cl)cc1)CN(CCc1ccccc1)CC3` came in with a melting point of 256 to 259 °C.

Turning to `CCOC(=O)NN=C(c1ccccc1)c1ccncc1`, the melting point was determined as 189 °C. The value for `COc1ccc2c(C)c(CCCl)c(=O)oc2c1OC` was 137 to 139 °C; that for `O=C(NC(=O)N1CCC(Cc2ccccc2)CC1)c1ccc(OCc2ccccc2)cc1` was 155 to 156 °C.

As to `O=C1C2C3C=CC(C3)C2C(=O)N1OS(=O)(=O)C(F)(F)F` (stereo unspecified), the melting point was in the range of 89 to 90 °C. The figure for `CCOc1cc(OCC2CCN(C)CC2)c(F)c(C(Nc2ccc(C(=N)N)cc2)C(=O)O)c1` (racemic) is 232 °C; for `O=C(O)CN1C(=O)C(=Cc2ccc(OCCc3ccccc3)c(OC(c3ccccc3)C(F)(F)F)c2)SC1=S` (stereo unspecified) it is 168 °C; for `CCOC(=O)CSc1nccc(NCc2ccc(Cl)cc2)n1` it is 175 to 178 °C. The figure for `CCCCNC(=N)OC(=N)N(CCCC)c1cccc(-c2ccnc3c(C(=O)c4cccs4)cnn23)c1` is 180 to 181 °C. The value for `O=C1CCN2C(=O)c3cccc(-n4c(=O)[nH]c5cnccc5c4=O)c3C2C1` (stereo unspecified) was 230 °C; that for `CCNC(=O)c1ccccc1Nc1nc(Nc2cc3c(cc2OC)CC(=O)NCC3)ncc1Cl` was greater than 250 °C.

`N=C(NN=Cc1ccc(OC(F)(F)C(F)F)cc1)NN=Cc1ccc(C(F)(F)F)cc1` registered a melting point of 132 to 137 °C. The figure for `COc1ccc2c(c1)C1=C(SCC3(CCN(CC(O)COc4ccc(F)cc4)CC3)O1)C(=O)C2=O` (stereo unspecified) is 80 to 81 °C. The value for `Cc1nn(-c2ccccc2)cc1C(=O)Nc1ccc(OCC(C)(C)C)c(C#N)c1` was 155 to 156 °C; that for `c1ccc(-c2cnc(Nc3ccncn3)s2)cc1` was greater than 250 °C. The figure for `CC(C)(C)OC(=O)N[C@H](CC(=O)OCc1ccccc1)C(=O)N[C@H](CO)c1ccccc1` is 117 to 118 °C. In the case of `CCOC=Nn1c(NC)n[nH]c1=O`, the melting point came to 169 °C. The value for `CSC1C(=O)Nc2c(Oc3ccccn3)cccc21` (stereo unspecified) was 140 to 142 °C. The value for `NS(=O)(=O)NCC1CCc2ccccc2O1` (stereo unspecified) was 100 to 101 °C. The value for `Cc1c(NC(=O)c2cc3c(s2)C2CCC3C2)cccc1-c1cn(C)c(=O)c(Nc2ccc(C3C(=O)N(C)CCN3C)cc2)n1` (stereo unspecified) was 178 to 179 °C; that for `CC1=C(/C=C/S(=O)(=O)NC(C)C)C(c2cc([N+](=O)[O-])ccc2Cl)C(C(=O)OC(C)C)=C(C)N1` (stereo unspecified) was 199 to 201 °C. As to `Nc1ccccc1CCN1CCN(c2ccccc2)CC1`, the melting point amounted to 103 °C. With `CC(C)C(=O)NC[C@H]1CN(c2ccc3c(c2)CCCc2cnoc2-3)C(=O)O1`, the melting point lay within 187 to 193 °C. The value for `COc1cccc2sc(-c3ccc([N+](=O)[O-])cc3Cl)nc12` was 187 to 188 °C; that for `Oc1cccc(C2=CCCN(CCc3ccccc3)C2)c1` was 155 °C.

Turning to `COC(=O)CCc1cc2nc(Cl)ccc2n1S(=O)(=O)c1cccc2cccnc12`, the melting point was found to be 120 °C. The value for `CC1(C)N=C(c2ccccc2Cl)c2cc([N+](=O)[O-])cc(Cl)c2NC1=O` was 121 °C; that for `CCOC(=O)C(=CNC1CC1)C(=O)c1c(N)c(F)c(F)c(OC(F)F)c1F` was 103 to 104 °C. The figure for `COC(=O)[C@H](Cc1ccc(-c2c(C)cc(C(F)(F)F)n(C)c2=O)cc1)NC(=O)c1c(Cl)cccc1Cl` is 170 to 173 °C; for `O=C1c2cc3nnn(CCC4=CCCCC4)c(=O)c3cc2OC2CCCN12` (stereo unspecified) it is 124 °C. The figure for `COc1ccc2nc(C)cc(-n3cncn3)c2c1` is 117 to 118 °C. As to `C[C@@H]1[C@H](c2ccccc2)[C@]1(NS(=O)(=O)c1ccc(-c2cc(C(C)(F)F)on2)s1)C(=O)O`, the melting point was in the range of 177 to 178 °C. Compound `CCOC(=O)C1Cc2cc3c(CC)noc3c(Cl)c2O1` (stereo unspecified) returned a melting point of 95 to 96 °C. `CCCC(=O)c1cnc2c(OC)cccc2c1Nc1ccccc1COC` gave a melting point of 128 to 130 °C.
